Values after ≈ are worked out from the molar mass of the structure shown.
What was measured:
[1] = tested on: Mycobacterium tuberculosis; experiment: microbe, parasite or virus in culture; settings: H37Rv
Description: Antitubercular activity against Mycobacterium tuberculosis H37Rv by LORA method

in vitro [2] = settings: CD1, mouse, liver microsomes
Description: Metabolic stability in CD1 mouse liver microsomes assessed as compound remaining after 1 hr

physchem [3] = settings: water, pH 7
Description: Solubility of the compound in water at pH 7.0 by HPLC

in vitro [4] = settings: human, liver microsomes
Description: Metabolic stability in human liver microsomes assessed as compound remaining after 1 hr

physchem [5] = settings: water, pH 1
Description: Solubility of the compound in water at pH 1.0 by HPLC

[6] = tested on: Mycobacterium tuberculosis; experiment: microbe, parasite or virus in culture; settings: H37Rv; remark: listed apart in the source
[7] = Oral bioavailability in Sprague-Dawley rat at 20 mg/kg, po administered as single dose; type: ADME, organism-based; settings: in vivo
[8] = AUClast in Sprague-Dawley rat at 5 mg/kg, iv administered as single dose; type: ADME, organism-based; design: time 0 - last, dose 5 mg/kg, route intravenous; settings: plasma
[9] = Half life in CD1 mouse lung at 40 mg/kg, po administered as single dose; type: ADME, organism-based; design: dose 40 mg/kg, route oral
[10] = AUC (0-infinity) in CD1 mouse plasma at 40 mg/kg, po administered as single dose; type: ADME, organism-based; design: time infinity, dose 40 mg/kg, route oral
[11] = Cmax in CD1 mouse plasma at 40 mg/kg, po administered as single dose; type: ADME, organism-based; design: dose 40 mg/kg, route oral
[12] = Cmax in Sprague-Dawley rat at 20 mg/kg, po administered as single dose; type: ADME, organism-based; design: dose 20 mg/kg, route oral; settings: in vivo
[13] = Half life in CD1 mouse plasma at 40 mg/kg, po administered as single dose; type: ADME, organism-based; design: dose 40 mg/kg, route oral
[14] = Cmax in Sprague-Dawley rat at 5 mg/kg, iv administered as single dose; type: ADME, organism-based; design: dose 5 mg/kg, route intravenous; settings: in vivo
[15] = Cmax in CD1 mouse lung at 40 mg/kg, po administered as single dose; type: ADME, organism-based; design: dose 40 mg/kg, route oral
[16] = Tmax in Sprague-Dawley rat at 5 mg/kg, iv administered as single dose; type: ADME, organism-based; design: dose 5 mg/kg, route intravenous; settings: in vivo
[17] = Half life in Sprague-Dawley rat at 5 mg/kg, iv administered as single dose; type: ADME, organism-based; design: dose 5 mg/kg, route intravenous; settings: in vivo
[18] = AUC (0-infinity) in CD1 mouse lung at 40 mg/kg, po administered as single dose; type: ADME, organism-based; design: time infinity, dose 40 mg/kg, route oral
[19] = AUClast in Sprague-Dawley rat at 20 mg/kg, po administered as single dose; type: ADME, organism-based; design: time 0 - last, dose 20 mg/kg, route oral; settings: plasma
[20] = Tmax in Sprague-Dawley rat at 20 mg/kg, po administered as single dose; type: ADME, organism-based; design: dose 20 mg/kg, route oral; settings: in vivo
[21] = Thermodynamic solubility in aqueous buffer at pH 1 at 20 degC by HPLC; type: physicochemical; settings: for solubility thermodynamic: aqueous buffer
[22] = Ratio of AUC (0-infinity) in lung to AUC (0-infinity) in plasma of CD1 mouse at 40 mg/kg, po administered as single dose; type: ADME, organism-based; design: dose 40 mg/kg, route oral
[23] = Thermodynamic solubility in aqueous buffer at pH 7.4 at 20 degC by HPLC; type: physicochemical
[24] = Half life in Sprague-Dawley rat at 1 mg/kg, iv administered as single dose; type: ADME, organism-based; design: dose 1 mg/kg, route intravenous; settings: in vivo
[25] = Tmax in Sprague-Dawley rat at 1 mg/kg, iv administered as single dose; type: ADME, organism-based; design: dose 1 mg/kg, route intravenous; settings: in vivo
[26] = AUClast in Sprague-Dawley rat at 1 mg/kg, iv administered as single dose; type: ADME, organism-based; design: time 0 - last, dose 1 mg/kg, route intravenous; settings: plasma
[27] = Cmax in Sprague-Dawley rat at 1 mg/kg, iv administered as single dose; type: ADME, organism-based; design: dose 1 mg/kg, route intravenous; settings: in vivo
[28] = Metabolic stability in human liver microsomes after 1 hr at 37 degC; type: ADME, Microsome; settings: read-out: Stability

| Structure (SMILES) | MIC [1] | remaining at 1 h (in vitro [2]) | solubility (physchem [3]) | remaining at 1 h (in vitro [4]) | solubility (physchem [5]) | MIC [6] | half-life [9] | AUC(0-inf) [10] | Cmax [11] | half-life [13] | Cmax [15] | AUC(0-inf) [18] | solubility thermodynamic [21] | solubility thermodynamic [23] | other results |
| --- | --- | --- | --- | --- | --- | --- | --- | --- | --- | --- | --- | --- | --- | --- | --- |
| O=[N+]([O-])c1cn2c(n1)OC[C@@H](OCc1cncc(-c3ccc(F)cc3)c1)C2 | 7.7 µM (≈ 2.85 µg/mL) | 39% | 45 µg/mL (≈ 122 µM) | 71% | 41000 µg/mL (≈ 111000 µM) | 0.31 µM (≈ 0.115 µg/mL) |  |  |  |  |  |  |  |  |  |
| O=[N+]([O-])c1cn2c(n1)OC[C@@H](OCc1ccc(-c3ccc(OC(F)(F)F)cc3)cn1)C2 | 3.7 µM (≈ 1.61 µg/mL) |  |  |  |  | 0.065 µM (≈ 0.0284 µg/mL) | 8.2 h | 418 µg·h/mL | 26000 ng/mL | 5.4 h | 35000 ng/mL | 427 µg·h/mL |  |  | bioavailability [7]: 46%; AUC(0-t) [8]: 35.9 µg·h/mL; Cmax [12]: 16000 ng/mL; Cmax [14]: 8700 ng/mL; Tmax [16]: 0.083 h; half-life [17]: > 6 h; AUC(0-t) [19]: 66.7 µg·h/mL; Tmax [20]: 6 h |
| O=[N+]([O-])c1cn2c(n1)OC[C@@H](OCc1ccc(-c3ccc(OC(F)(F)F)c(F)c3)cn1)C2 | 1.3 µM (≈ 0.591 µg/mL) | 86% | 30 µg/mL (≈ 66 µM) | 97% | 334 µg/mL (≈ 735 µM) | 0.05 µM (≈ 0.0227 µg/mL) | 7.9 h | 137 µg·h/mL | 7600 ng/mL | 8.4 h | 9100 ng/mL | 155 µg·h/mL | 67 µg/mL (≈ 147 µM) | 1.5 µg/mL (≈ 3.3 µM) | Kp [22]: 1.1 |
| O=[N+]([O-])c1cn2c(n1)OC[C@@H](OCc1ccc(-c3ccc(F)cc3)nc1)C2 | 2.9 µM (≈ 1.07 µg/mL) | 80% |  | 88% | 1000 µg/mL (≈ 2700 µM) | 0.06 µM (≈ 0.0222 µg/mL) | 2.8 h | 61 µg·h/mL | 5300 ng/mL | 2.7 h | 11000 ng/mL | 136 µg·h/mL | > 93 µg/mL | 5.9 µg/mL (≈ 15.9 µM) |  |
| O=[N+]([O-])c1cn2c(n1)OC[C@@H](OCc1ccc(-c3ccc(OC(F)(F)F)c(Cl)c3)nc1)C2 | 1 µM (≈ 0.471 µg/mL) | 77% |  | 87% | 39 µg/mL (≈ 82.8 µM) | 0.017 µM (≈ 0.008 µg/mL) | 14 h | 88 µg·h/mL | 2900 ng/mL | 22 h | 10000 ng/mL | 284 µg·h/mL | 17 µg/mL (≈ 36.1 µM) | 0.19 µg/mL (≈ 0.404 µM) |  |
| O=[N+]([O-])c1cn2c(n1)OC[C@@H](OCc1ccc(-c3ccc(OC(F)(F)F)c(F)c3)nc1)C2 | 0.93 µM (≈ 0.423 µg/mL) | 90% | 3 µg/mL (≈ 6.6 µM) | 100% | 71 µg/mL (≈ 156 µM) | 0.025 µM (≈ 0.0114 µg/mL) | 12 h | 175 µg·h/mL | 7000 ng/mL | 14 h | 12000 ng/mL | 251 µg·h/mL | 34 µg/mL (≈ 74.8 µM) | 0.32 µg/mL (≈ 0.704 µM) | bioavailability [7]: 93%; half-life [24]: 33 h; Tmax [25]: 4.98 min; Cmax [12]: 7200 ng/mL; Kp [22]: 1.4; AUC(0-t) [26]: 6.97 µg·h/mL; AUC(0-t) [19]: 129 µg·h/mL; Tmax [20]: 6 h; Cmax [27]: 530 ng/mL |
| O=[N+]([O-])c1cn2c(n1)OC[C@@H](OCc1ccc(-c3ccc(OC(F)(F)F)cc3)nn1)C2 | 1.7 µM (≈ 0.743 µg/mL) | 92% |  | 94% | 31 µg/mL (≈ 70.9 µM) | 0.075 µM (≈ 0.0328 µg/mL) | 3.4 h | 52 µg·h/mL | 3600 ng/mL | 2.9 h | 7000 ng/mL | 94 µg·h/mL | 10 µg/mL (≈ 22.9 µM) | 3 µg/mL (≈ 6.86 µM) |  |
| O=[N+]([O-])c1cn2c(n1)OC[C@@H](OCc1cnc(-c3ccc(OC(F)(F)F)cc3)cn1)C2 | 1 µM (≈ 0.437 µg/mL) |  |  | 98% | 2.8 µg/mL (≈ 6.4 µM) | 0.023 µM (≈ 0.0101 µg/mL) | > 8 h | 152 µg·h/mL | 9600 ng/mL | 7.2 h | 23000 ng/mL | > 324 µg·h/mL | 0.44 µg/mL (≈ 1.01 µM) | 0.44 µg/mL (≈ 1.01 µM) | bioavailability [7]: 45%; AUC(0-t) [8]: 16.3 µg·h/mL; Cmax [12]: 7000 ng/mL; Cmax [14]: 3900 ng/mL; Tmax [16]: 0.167 h; half-life [17]: 24 h; AUC(0-t) [19]: 29.4 µg·h/mL; Tmax [20]: 5 h |
| O=[N+]([O-])c1cn2c(n1)OC[C@@H](OCc1cnc(-c3ccc(OC(F)(F)F)cc3)nc1)C2 | 1.8 µM (≈ 0.787 µg/mL) | 87% |  | 96% | 3 µg/mL (≈ 6.86 µM) | 0.027 µM (≈ 0.0118 µg/mL) | 18 h | 43 µg·h/mL | 1200 ng/mL | 23 h | 4000 ng/mL | 131 µg·h/mL | 1.5 µg/mL (≈ 3.43 µM) | 1.2 µg/mL (≈ 2.74 µM) |  |
| O=[N+]([O-])c1cn2c(n1)OC[C@@H](OCc1ccc(-c3ccc(C(F)(F)F)cn3)cc1)C2 | 1 µM (≈ 0.42 µg/mL) | 90% | 0.2 µg/mL (≈ 0.476 µM) | 93% | 5.1 µg/mL (≈ 12.1 µM) | 0.06 µM (≈ 0.0252 µg/mL) | 10 h | 20 µg·h/mL | 1100 ng/mL | 8.8 h | 34000 ng/mL | 67 µg·h/mL | 0.84 µg/mL (≈ 2 µM) | 0.42 µg/mL (≈ 0.999 µM) | Kp [22]: 3.4 |
| O=[N+]([O-])c1cn2c(n1)OC[C@@H](OCc1ccc(-c3ccc(C(F)(F)F)nc3)cc1)C2 | 2.1 µM (≈ 0.883 µg/mL) |  | 1 µg/mL (≈ 2.38 µM) | 86% | 11 µg/mL (≈ 26.2 µM) | 0.03 µM (≈ 0.0126 µg/mL) | 9.1 h | 217 µg·h/mL | 14000 ng/mL |  | 373000 ng/mL | 414 µg·h/mL | 0.38 µg/mL (≈ 0.904 µM) | 0.17 µg/mL (≈ 0.404 µM) | Kp [22]: 1.9 |
| COc1ccc(-c2ccc(CO[C@@H]3COc4nc([N+](=O)[O-])cn4C3)cc2)cn1 | 0.61 µM (≈ 0.233 µg/mL) | 6% | 4.4 µg/mL (≈ 11.5 µM) | 40% |  | 0.045 µM (≈ 0.0172 µg/mL) |  |  |  |  |  |  |  |  | remaining at 1 h [28]: > 50% |
| O=[N+]([O-])c1cn2c(n1)OC[C@@H](OCc1ccc(-c3ccnc(F)c3)cc1)C2 | 1.4 µM (≈ 0.518 µg/mL) | 86% | 14 µg/mL (≈ 37.8 µM) | 93% | 15 µg/mL (≈ 40.5 µM) | 0.23 µM (≈ 0.0852 µg/mL) |  |  |  |  |  |  |  |  |  |
| O=[N+]([O-])c1cn2c(n1)OC[C@@H](OCc1ccc(-c3ccc(OC(F)(F)F)cc3)cc1)C2 |  |  |  |  | 1.1 µg/mL (≈ 2.53 µM) |  | 13 h | 198 µg·h/mL | 7400 ng/mL |  | 9000 ng/mL | 218 µg·h/mL | < 0.1 µg/mL | < 0.1 µg/mL |  |
| O=[N+]([O-])c1cn2c(n1)OC[C@@H](OCc1ccc(OC(F)(F)F)cc1)C2 [PRETOMANID] |  |  |  |  |  |  |  |  |  |  |  |  | 11 µg/mL (≈ 30.6 µM) |  |  |
| O=[N+]([O-])c1cn2c(n1)OC[C@@H](OCc1ccc(-c3ccc(OC(F)(F)F)cc3)nc1)C2 [TBA-354] | 0.54 µM (≈ 0.236 µg/mL) | 87% |  | 83% |  | 0.05 µM (≈ 0.0218 µg/mL) | 2.2 h | 296 µg·h/mL | 12000 ng/mL | 24 h | 18000 ng/mL | 81 µg·h/mL |  | < 0.1 µg/mL | bioavailability [7]: 62%; AUC(0-t) [8]: 12.1 µg·h/mL; Cmax [12]: 8100 ng/mL; solubility ([21]; buffer): 45 µg/mL (≈ 103 µM); Cmax [14]: 3900 ng/mL; Tmax [16]: 0.083 h; half-life [17]: > 6 h; AUC(0-t) [19]: 30.1 µg·h/mL; Tmax [20]: 5 h |
